Source: article PMC2742306 (Molecular cell, 2009)
No end group written: not given here. βAla = NCCC(=O)O

Assays:
D320A DegS [1] = biological target: T1, D320A DegS (Escherichia coli, UniProt P0AEE3, D320A); assay type: biochemical, E. coli
D320A DegS [2] = biological target: T1, D320A DegS; assay: Global fit to MWC allosteric model, D320A DegS; assay type: biochemical, E. coli; conditions: D320A, MWC global fit
K243D mutant of DegS [3] = biological target: T2, K243D mutant of DegS (Escherichia coli, UniProt P0AEE3, K243D); assay type: biochemical, E. coli
wild-type DegS [4] = biological target: T3, wild-type DegS (Escherichia coli, UniProt P0AEE3); assay type: biochemical, E. coli
[5] = biological target: K243D/D320A mutant of DegS (Escherichia coli, UniProt P0AEE3, D320A/K243D); assay type: biochemical, E. coli
wild-type DegS [6] = biological target: T3, wild-type DegS; conditions: 200 μM RseA, ref Sohn et al. (2007); cited from earlier work
D320A DegS [7] = biological target: T1, D320A DegS; assay: OMP-peptide activation of RseA cleavage by D320A DegS; assay type: biochemical, E. coli
wild-type DegS [8] = biological target: T3, wild-type DegS; assay type: biochemical, E. coli; conditions: wild-type DegS 0.9 μM trimer; 20 μM rhodamine-FP; saturating peptide
wild-type DegS [9] = biological target: T3, wild-type DegS; conditions: saturating peptide, ref Sohn et al. (2007); cited from earlier work
[10] = biological target: K243D/M319A double mutant of DegS (Escherichia coli, UniProt P0AEE3, K243D/M319A); assay type: biochemical, E. coli; conditions: saturating peptide
K243D mutant of DegS [11] = biological target: T2, K243D mutant of DegS; assay: Global fit to MWC allosteric model, K243D DegS; assay type: biochemical, E. coli; conditions: K243D, MWC global fit
[12] = biological target: T4, DegS K243D/D320A double mutant (residues 27–355, N-terminal His6 tag) (E. coli, UniProt P0AEE3 27-355, K243D | D320A); assay: cell-based or functional assay
T4 sequence (looked up): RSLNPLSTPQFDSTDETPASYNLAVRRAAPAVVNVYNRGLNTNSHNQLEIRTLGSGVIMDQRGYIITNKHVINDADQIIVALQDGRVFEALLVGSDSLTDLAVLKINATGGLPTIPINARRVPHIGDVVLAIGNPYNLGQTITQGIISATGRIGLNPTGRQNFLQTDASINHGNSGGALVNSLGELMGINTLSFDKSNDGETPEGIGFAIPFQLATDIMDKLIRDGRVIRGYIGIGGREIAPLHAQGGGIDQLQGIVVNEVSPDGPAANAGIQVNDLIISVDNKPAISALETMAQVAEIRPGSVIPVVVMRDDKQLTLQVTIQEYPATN

[13] = biological target: T5, DegS K243D/M319A double mutant (residues 27–355, N-terminal His6 tag) (E. coli, UniProt P0AEE3 27-355, K243D | M319A); assay: cell-based or functional assay
T5 sequence (looked up): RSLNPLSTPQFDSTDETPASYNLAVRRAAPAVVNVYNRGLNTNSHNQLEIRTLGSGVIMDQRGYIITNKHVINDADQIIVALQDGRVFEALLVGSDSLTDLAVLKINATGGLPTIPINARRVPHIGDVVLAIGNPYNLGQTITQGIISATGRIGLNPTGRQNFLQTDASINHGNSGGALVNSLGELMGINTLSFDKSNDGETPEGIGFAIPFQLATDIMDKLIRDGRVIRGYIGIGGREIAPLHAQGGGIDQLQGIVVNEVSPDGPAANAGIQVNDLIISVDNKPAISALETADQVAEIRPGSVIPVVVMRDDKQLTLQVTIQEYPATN

[14] = biological target: T6, DegS K243D (residues 27–355, N-terminal His6 tag) (E. coli, UniProt P0AEE3 27-355, K243D); assay: cell-based or functional assay
T6 sequence (looked up): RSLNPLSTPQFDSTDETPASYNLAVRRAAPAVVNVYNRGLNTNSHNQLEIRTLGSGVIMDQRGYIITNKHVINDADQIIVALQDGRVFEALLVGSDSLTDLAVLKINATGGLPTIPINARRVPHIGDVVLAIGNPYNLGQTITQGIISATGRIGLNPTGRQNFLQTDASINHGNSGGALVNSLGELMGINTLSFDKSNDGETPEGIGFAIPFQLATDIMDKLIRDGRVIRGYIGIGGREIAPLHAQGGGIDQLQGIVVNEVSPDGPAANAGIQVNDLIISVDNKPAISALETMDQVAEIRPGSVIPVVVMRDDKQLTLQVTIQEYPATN

[15] = biological target: T7, DegS D320A (residues 27–355, N-terminal His6 tag) (E. coli, UniProt P0AEE3 27-355, D320A); assay: cell-based or functional assay
T7 sequence (looked up): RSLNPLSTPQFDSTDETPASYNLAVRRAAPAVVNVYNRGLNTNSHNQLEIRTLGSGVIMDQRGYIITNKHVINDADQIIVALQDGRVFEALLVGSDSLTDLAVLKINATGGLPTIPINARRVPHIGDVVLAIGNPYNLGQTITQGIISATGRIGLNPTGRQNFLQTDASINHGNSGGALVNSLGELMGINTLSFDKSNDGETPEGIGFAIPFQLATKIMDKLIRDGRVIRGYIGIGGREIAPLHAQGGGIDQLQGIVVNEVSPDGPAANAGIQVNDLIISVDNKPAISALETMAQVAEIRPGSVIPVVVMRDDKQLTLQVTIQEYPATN

DegS and its mutants = assay: Global fit to MWC allosteric model, RseA substrate binding; assay type: biochemical, E. coli
[16] = biological target: T5, DegS K243D/M319A double mutant …; assay: fluorescence polarisation
[17] = biological target: T8, DegS M319A (residues 27–355, N-terminal His6 tag) (E. coli, UniProt P0AEE3 27-355, M319A); assay: fluorescence polarisation
T8 sequence (looked up): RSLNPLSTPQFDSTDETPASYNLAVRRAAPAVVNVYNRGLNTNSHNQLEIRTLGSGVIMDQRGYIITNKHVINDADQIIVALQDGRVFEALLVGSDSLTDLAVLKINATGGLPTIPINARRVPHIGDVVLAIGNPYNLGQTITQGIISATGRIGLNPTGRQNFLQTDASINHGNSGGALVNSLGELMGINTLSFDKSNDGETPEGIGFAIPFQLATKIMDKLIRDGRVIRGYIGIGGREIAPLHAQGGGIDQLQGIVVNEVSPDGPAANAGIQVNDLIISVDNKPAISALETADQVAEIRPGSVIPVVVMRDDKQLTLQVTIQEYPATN

[18] = enzyme parameter, peptide-independent
[19] = peptide preference for relaxed state
[20] = same value for all enzymes and peptides

T3 sequence (P0AEE3 27-355): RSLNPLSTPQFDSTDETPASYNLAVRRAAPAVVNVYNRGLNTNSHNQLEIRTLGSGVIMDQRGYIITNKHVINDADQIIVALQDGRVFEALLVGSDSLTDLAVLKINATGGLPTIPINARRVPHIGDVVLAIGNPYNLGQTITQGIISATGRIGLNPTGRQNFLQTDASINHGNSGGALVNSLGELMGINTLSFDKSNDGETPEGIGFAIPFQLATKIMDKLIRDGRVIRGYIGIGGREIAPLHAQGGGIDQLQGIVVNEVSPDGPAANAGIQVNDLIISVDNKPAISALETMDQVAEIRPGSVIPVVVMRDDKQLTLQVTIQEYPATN

## DNRDGNVYYF [DNRDGNVYYF]
D320A DegS [1]; D320A 0.3 μM trimer, saturating peptide (DNRDGNVYYF 30 μM), 23 °C, pH 8.3
  Vmax (RseA cleavage): 2.5 ± 0.3 s^−1enz^−1
D320A DegS [1]; D320A, saturating peptide
  Hill Constant (RseA substrate): 1.1 ± 0.2
D320A DegS [2]; RseA, not peptide, binding
  KRS, dissociation constant of RseA substrate for R-state subunit: 150 µM
  KTS, dissociation constant of RseA substrate for T-state subunit: 505 µM
D320A DegS [2]; [18]
  L0, equilibrium constant T/R of unliganded enzyme: 350
D320A DegS [2]; [19]
  KTP/KRP: 3.3
D320A DegS [2]; [20]
  kr, rate constant for cleavage of RseA by substrate-bound R-state subunits: 3.3 s⁻¹
K243D mutant of DegS [3]; K243D 0.3 μM trimer, saturating peptide (DNRDGNVYYF 30 μM), 23 °C, pH 8.3
  Vmax (RseA cleavage): 1.8 ± 0.2 s^−1enz^−1
K243D mutant of DegS [3]; K243D, saturating peptide
  Hill Constant (RseA substrate): 1.3 ± 0.1
wild-type DegS [4]; MWC global fit, enzyme parameter, peptide-independent
  L0, equilibrium constant T/R of unliganded enzyme: 15000
wild-type DegS [4]; MWC global fit, peptide preference for relaxed state
  KTP/KRP: 6.8
wild-type DegS [4]; MWC global fit, same value for all enzymes and peptides
  kr, rate constant for cleavage of RseA by substrate-bound R-state subunits: 3.3 s⁻¹
wild-type DegS [4]; saturating peptide and saturating RseA substrate, MWC model
  DegS molecules in active conformation: 45%
[5]; K243D/D320A 0.3 μM trimer, DNRDGNVYYF 30 μM, 23 °C, pH 8.3
  Vmax (RseA cleavage): 2.0 ± 0.3 s^−1enz^−1
[5]; K243D/D320A, saturating OMP peptide
  Hill Constant (RseA substrate): 1.1 ± 0.1
wild-type DegS [6]
  Hill Constant (peptide activation): 1.8 ± 0.2
D320A DegS [7]
  EC50: 200 ± 100 nM
wild-type DegS [8]
  rate of rhodamine-FP modification in presence of peptide (order): slower
wild-type DegS [9]
  Hill Constant (RseA substrate): 1.6 ± 0.2
  Vmax (RseA cleavage): 1.1 ± 0.2 s^−1enz^−1
[10]
  Hill Constant (RseA substrate): 1.2 ± 0.1
[10]; 23 °C, pH 8.3
  Vmax (RseA cleavage): 1.4 ± 0.1 s^−1enz^−1
K243D mutant of DegS [11]; RseA, not peptide, binding
  KRS, dissociation constant of RseA substrate for R-state subunit: 150 µM
  KTS, dissociation constant of RseA substrate for T-state subunit: 505 µM
K243D mutant of DegS [11]; [18]
  L0, equilibrium constant T/R of unliganded enzyme: 180
K243D mutant of DegS [11]; [19]
  KTP/KRP: 2.0
K243D mutant of DegS [11]; [20]
  kr, rate constant for cleavage of RseA by substrate-bound R-state subunits: 3.3 s⁻¹

B1: 35S-labeled variant of the periplasmic domain of E. coli RseA (residues 121–216) with a C-terminal His6 tag (domain or fragment, UniProt P0AFX7 121-216, looked up)
chain: YNGQSETSQQPETPVFNTLPMMGKASPVSLGVPSEATANNGQQQQVQEQRRRINAMLQDYELQRRLHSEQLQFEQAQTQQAAVQVPGIQTLGTQSQ
modifications: 35S-labeled
[12]
  KM of RseA cleavage with saturating … peptide: 630 µM
[13]
  KM of RseA cleavage with saturating YYF peptide: 490 µM
  KM of RseA cleavage with saturating … peptide: 840 µM
[14]
  KM of RseA cleavage with saturating YYF peptide: 440 µM
  KM of RseA cleavage with saturating … peptide: 580 µM
[15]
  KM of RseA cleavage with saturating YYF peptide: 430 µM
  KM of RseA cleavage with saturating … peptide: 520 µM

B2: RseA: 35S-labeled variant of the periplasmic domain of E. coli RseA (residues 121–216) with a C-terminal His6 tag (protein)
chain: YNGQSETSQQPETPVFNTLPMMGKASPVSLGVPSEATANNGQQQQVQEQRRRINAMLQDYELQRRLHSEQLQFEQAQTQQAAVQVPGIQTLGTQSQ
modifications: 35S-labeled; left off: His6, C-terminal, state not stated
DegS and its mutants
  preference for relaxed state in substrate-saturated trimer: approximately 40 fold

## {fluoresceine-βAla}-KKDNRDGNYYF [OMP peptide fluoresceine-β-alanine-KKDNRDGNYYF]
[16]
  Kd: 180 nM
[17]
  Kd: 140 nM
